According to ChEMBL document CHEMBL1201862, “PubChem BioAssay data set” (2004):
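Each compound was tested at five concentrations against cells in 96-well plates for 48 hours. GI50: concentration for 50% inhibition of growth.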 Activity calls are given as the source filed them. No stated cut-off is given here; in the data, active = GI50 up to about 1.1 µM and inactive = higher.

What was measured:
Experiment in all cases: NCI tumour cell line growth inhibition, 48 h
U-251 = tested on: U-251
PC-3 = tested on: PC-3
MCF7 = tested on: MCF7
RXF 393 = tested on: RXF 393
HT-29 = tested on: HT-29
Malme-3M = tested on: Malme-3M
K562 = tested on: K562
SNB-19 = tested on: SNB-19
UACC-62 = tested on: UACC-62
HCT-15 = tested on: HCT-15
SF-295 = tested on: SF-295
EKVX = tested on: EKVX
UO-31 = tested on: UO-31
CCRF-CEM = tested on: CCRF-CEM
CAKI-1 = tested on: CAKI-1
HL-60 = tested on: HL-60
UACC-257 = tested on: UACC-257
SN12C = tested on: SN12C
SNB-75 = tested on: SNB-75
A498 = tested on: A498

Structure (SMILES)	GI50 (U-251)	GI50 (PC-3)	GI50 (MCF7)	GI50 (RXF 393)	GI50 (HT-29)	GI50 (Malme-3M)	GI50 (K562)	GI50 (SNB-19)	GI50 (UACC-62)	GI50 (HCT-15) [µM]	GI50 (SF-295)	GI50 (EKVX)	GI50 (UO-31)	GI50 (CCRF-CEM)	GI50 (CAKI-1)	GI50 (HL-60)	GI50 (UACC-257)	GI50 (SN12C)	GI50 (SNB-75)	GI50 (A498)
CSc1ccc2c(c1)C(N1CCN(C)CC1)Cc1ccccc1S2 (stereo not given)	4.43 µM (inactive)	4.3 µM (inactive)	2.36 µM (inactive)	2.81 µM (inactive)	2.33 µM (inactive)	1.71 µM (inactive)	1.94 µM (inactive)	13.3 µM (inactive)	2.05 µM (inactive)	4.15	3.83 µM (inactive)	3.34 µM (inactive)	3.63 µM (inactive)	0.219 µM (active)	3.65 µM (inactive)	2.69 µM (inactive)	2.07 µM (inactive)	6.28 µM (inactive)	< 0.01 µM (active)	9.79 µM (inactive)
NCCSCC(N)C(=O)O (stereo not given)	> 497 µM (inactive)	> 100 µM (inactive)	46.7 µM (inactive)	> 497 µM (inactive)	39.5 µM (inactive)	> 66.2 µM (inactive)	37.2 µM (inactive)	> 497 µM (inactive)	> 497 µM (inactive)	> 87.5	> 497 µM (inactive)	> 497 µM (inactive)	85.5 µM (inactive)	29 µM (inactive)	> 100 µM (inactive)	> 497 µM (inactive)	> 497 µM (inactive)	> 497 µM (inactive)	> 40.4 µM (inactive)	> 497 µM (inactive)
O=C(N/N=C\C=C\c1ccc([N+](=O)[O-])o1)C(=O)N/N=C\C=C\c1ccc([N+](=O)[O-])o1	> 100 µM (inactive)	> 100 µM (inactive)	44.1 µM (inactive)	> 100 µM (inactive)	> 100 µM (inactive)	> 100 µM (inactive)	> 100 µM (inactive)	> 100 µM (inactive)	> 100 µM (inactive)	81.7	> 100 µM (inactive)	> 100 µM (inactive)	> 100 µM (inactive)	1.36 µM (inactive)	> 100 µM (inactive)	20 µM (inactive)	> 100 µM (inactive)	> 100 µM (inactive)	> 100 µM (inactive)	> 100 µM (inactive)
CC1CCCC(C(=O)CC2CC(=O)NC(=O)C2)C1=O (stereo not given)	> 100 µM (inactive)	> 100 µM (inactive)	> 100 µM (inactive)	> 100 µM (inactive)	> 100 µM (inactive)	> 100 µM (inactive)	> 100 µM (inactive)	> 100 µM (inactive)	> 100 µM (inactive)	> 100	> 100 µM (inactive)	> 100 µM (inactive)	> 100 µM (inactive)	> 100 µM (inactive)	> 100 µM (inactive)	> 100 µM (inactive)	> 100 µM (inactive)	> 100 µM (inactive)	> 100 µM (inactive)	> 100 µM (inactive)
O=C(NC(=O)c1c(Cl)nc2sccn12)Nc1ccc(Cl)cc1	24.8 µM (inactive)	53 µM (inactive)	15.5 µM (inactive)	30.9 µM (inactive)	> 100 µM (inactive)	84.3 µM (inactive)	> 100 µM (inactive)	28.4 µM (inactive)	> 100 µM (inactive)	> 96.4	33.6 µM (inactive)	> 91.6 µM (inactive)	67.1 µM (inactive)	> 100 µM (inactive)	> 83.9 µM (inactive)	> 100 µM (inactive)	> 100 µM (inactive)	86.5 µM (inactive)	19.9 µM (inactive)	49.3 µM (inactive)
NC(=O)[C@H](Cc1ccc(O)cc1)NC1=C(Cl)C(=O)c2c(O)ccc(O)c2C1=O	2.97 µM (inactive)	2.24 µM (inactive)	1.32 µM (inactive)	3.52 µM (inactive)	2.38 µM (inactive)	1.96 µM (inactive)	1.45 µM (inactive)	> 10 µM (inactive)	1.85 µM (inactive)	1.79	> 10 µM (inactive)	> 10 µM (inactive)	4 µM (inactive)	0.241 µM (active)	2.37 µM (inactive)	1.04 µM (active)	3.15 µM (inactive)	3.55 µM (inactive)	4.93 µM (inactive)	4.4 µM (inactive)
N#Cc1cccc2c1Sc1ccccc1N2	20 µM (inactive)	14.1 µM (inactive)	30.2 µM (inactive)	3.7 µM (inactive)	32.7 µM (inactive)	41.6 µM (inactive)	17.4 µM (inactive)	33.1 µM (inactive)	27.2 µM (inactive)	23.6	23.9 µM (inactive)	19.1 µM (inactive)	27.1 µM (inactive)	7.48 µM (inactive)	32.2 µM (inactive)	27.3 µM (inactive)	35.1 µM (inactive)	39.2 µM (inactive)	1.77 µM (inactive)	14.8 µM (inactive)
CCOC(=O)[C@@H](NC(=O)OC(C)(C)C)[C@@H](O)C(=O)OCC	> 100 µM (inactive)	> 100 µM (inactive)	> 100 µM (inactive)	> 100 µM (inactive)	> 100 µM (inactive)	> 100 µM (inactive)	> 100 µM (inactive)	> 100 µM (inactive)	> 100 µM (inactive)	> 100	> 100 µM (inactive)	> 100 µM (inactive)	> 100 µM (inactive)	> 100 µM (inactive)	> 100 µM (inactive)	> 100 µM (inactive)	> 100 µM (inactive)	> 100 µM (inactive)	> 100 µM (inactive)	69.5 µM (inactive)
CCOC(=O)[C@@H]1[C@@H]2NC(=O)N[C@@]1(C)Oc1ccccc12	> 100 µM (inactive)	> 100 µM (inactive)	> 100 µM (inactive)	> 100 µM (inactive)	> 100 µM (inactive)	> 100 µM (inactive)	> 100 µM (inactive)	> 100 µM (inactive)	> 100 µM (inactive)	> 100	> 100 µM (inactive)	> 100 µM (inactive)	> 100 µM (inactive)	> 100 µM (inactive)	> 100 µM (inactive)	> 100 µM (inactive)	> 100 µM (inactive)	> 100 µM (inactive)	> 100 µM (inactive)	> 100 µM (inactive)
O=C1C(O)=C(C(C2=C(O)C(=O)c3ccccc3C2=O)c2ccc(Cl)cc2)C(=O)c2ccccc21	6.24 µM (inactive)	18.8 µM (inactive)	5.13 µM (inactive)	7.13 µM (inactive)	7.87 µM (inactive)	5.25 µM (inactive)	15.2 µM (inactive)	19.5 µM (inactive)	9.75 µM (inactive)	9.12	5.78 µM (inactive)	13.6 µM (inactive)	10.1 µM (inactive)	6.4 µM (inactive)	9.4 µM (inactive)	1.66 µM (inactive)	5 µM (inactive)	1.71 µM (inactive)	2.5 µM (inactive)	18.4 µM (inactive)
BC(=O)NC(CC(C)C)C(=O)NCC(=O)NC1c2ccsc2C(=O)C1O.CN(C)C (stereo not given)	> 100 µM (inactive)	> 100 µM (inactive)	2.37 µM (inactive)	> 100 µM (inactive)	> 100 µM (inactive)	> 100 µM (inactive)	31.6 µM (inactive)	> 100 µM (inactive)	> 100 µM (inactive)	> 100	> 100 µM (inactive)	> 100 µM (inactive)	> 100 µM (inactive)	31.6 µM (inactive)	> 100 µM (inactive)	> 100 µM (inactive)	> 100 µM (inactive)	> 100 µM (inactive)	> 100 µM (inactive)	> 100 µM (inactive)
COc1cc(O)c(C(=O)/C=C/c2ccc(O)cc2)cc1Oc1ccc(/C=C/C(=O)c2ccc(O)cc2O)cc1 [RHUSCHALCONE III]	7.98 µM (inactive)	7.21 µM (inactive)	8.69 µM (inactive)	8.2 µM (inactive)	7.57 µM (inactive)	8.38 µM (inactive)	9.75 µM (inactive)	12.9 µM (inactive)	8.61 µM (inactive)	8.85	10.1 µM (inactive)	13 µM (inactive)	9.48 µM (inactive)	7.29 µM (inactive)	14.2 µM (inactive)	10.4 µM (inactive)	10.1 µM (inactive)	8.81 µM (inactive)	12.6 µM (inactive)	6.93 µM (inactive)
CCC1(O)C(=O)OCc2c1cc1n(c2=O)Cc2cc3c(N)cccc3nc2-1 (stereo not given) [RS-9-Aminocamptothecin]	< 0.0115 µM (active)	0.115 µM (active)	< 0.01 µM (active)	0.0447 µM (active)	0.118 µM (active)	0.21 µM (active)	0.0309 µM (active)	< 0.0138 µM (active)	< 0.01 µM (active)	0.267	0.0102 µM (active)	1.2 µM (inactive)	< 0.0109 µM (active)	< 0.01 µM (active)	< 0.01 µM (active)	< 0.0128 µM (active)	0.121 µM (active)	< 0.01 µM (active)	0.013 µM (active)	0.156 µM (active)
